Test results: PubChem BioAssay (NCI)
“And” between values parts separate entries of the source, which are not always exact repeats. Equal values may be shown once.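 Assay format: 96-well plates, 48-hour exposure. GI50 is the concentration that inhibits growth by half. TGI: total growth inhibition.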

Assays:
Assay in all cases: NCI tumour cell line growth inhibition, 48 h
UO-31 renal = tested on: UO-31 renal
HCT-116 colon = tested on: HCT-116 colon
SK-MEL-5 melanoma = tested on: SK-MEL-5 melanoma
UACC-257 melanoma = tested on: UACC-257 melanoma
HL-60(TB) leukemia = tested on: HL-60(TB) leukemia
NCI-H522 lung = tested on: NCI-H522 lung
HOP-92 NSCLC = tested on: HOP-92 NSCLC
ACHN renal = tested on: ACHN renal
NCI-H23 lung = tested on: NCI-H23 lung
RPMI-8226 leukemia = tested on: RPMI-8226 leukemia

SMILES | TGI (UO-31 renal) | TGI (HCT-116 colon) | TGI (SK-MEL-5 melanoma) | TGI (UACC-257 melanoma) | TGI (HL-60(TB) leukemia) | TGI (NCI-H522 lung) | TGI (HOP-92 NSCLC) | TGI (ACHN renal) | TGI (NCI-H23 lung) | TGI (RPMI-8226 leukemia) | GI50 (UO-31 renal) | GI50 (HCT-116 colon) | GI50 (SK-MEL-5 melanoma) | GI50 (UACC-257 melanoma) | GI50 (HL-60(TB) leukemia) | GI50 (NCI-H522 lung) | GI50 (HOP-92 NSCLC) | GI50 (ACHN renal) | GI50 (NCI-H23 lung) | GI50 (RPMI-8226 leukemia)
O=C1CCC(c2ccccc2)(c2ccccc2)CC1 | > 100 µM | > 100 µM | > 100 µM | > 100 µM | 81 µM | > 100 µM | > 100 µM | > 100 µM | > 100 µM | > 100 µM |  |  |  |  |  |  |  |  |  | 
Nc1nc(Cl)cc(NCCCCCCCCCCNc2cc(Cl)nc(N)n2)n1 | > 100 µM | > 100 µM | 4.47 µM | > 100 µM | 34.6 µM | 11.5 µM | > 100 µM | 0.0447 µM | > 100 µM | 91.4 µM |  |  |  |  |  |  |  |  |  | 
CCNC1=CC(=O)c2ncccc2C1=O | 7.72 µM | 9.7 µM | 1.11 µM | 3 µM | 7.13 µM | 4.23 µM | 25.3 µM | 19.6 µM | 2.53 µM | 29.6 µM | 1.76 µM | 3 µM | 0.298 µM | 1.42 µM | 1.87 µM | 1.79 µM | 10.3 µM | 5.9 µM | 0.504 µM | 7.08 µM
Cc1ccc(C)c(NC(=O)CCc2n[nH]c(=S)o2)c1 | > 100 µM | > 100 µM | > 100 µM | > 100 µM | > 100 µM | > 100 µM | > 100 µM | > 100 µM | > 100 µM |  |  |  |  |  |  |  |  |  |  | 
C1CCN2CC34CC(CC5CCCN(C6CCCC3N6)C54)C2C1 (stereo not given) |  | > 100 µM | > 100 µM | > 100 µM | > 100 µM | > 100 µM | > 100 µM | > 100 µM | > 100 µM | > 100 µM |  |  |  |  |  |  |  |  |  | 
NC(=O)c1ccc(NC(=O)c2oc3ccccc3c2-c2cnn(-c3ccccc3)c2)cc1 | > 100 µM |  |  | > 100 µM | > 100 µM | > 100 µM | 6.46 µM | > 100 µM | > 100 µM |  | > 100 µM |  |  | > 100 µM | > 100 µM | > 100 µM | 1.69 µM | 5.03 µM | 6 µM | 
COS(=O)CCOC(=O)c1ccccc1SSc1ccccc1C(=O)OCCS(=O)OC (stereo not given) | 43.5 µM |  | > 100 µM | 38.8 µM |  | 18.6 µM | 74.2 µM | > 100 µM | 44.4 µM | 57.7 µM |  |  |  |  |  |  |  |  |  | 
C[Si](C)(C)[C@@]1([Se]c2ccccc2)CC[C@@H]1C(=O)c1ccccc1 | > 100 µM | > 100 µM | 37.4 µM | > 100 µM |  | 58.1 µM |  | > 100 µM | > 100 µM | 53 µM |  |  |  |  |  |  |  |  |  | 
CC(C)(C)c1ccc(C(O)(c2ccc(C(C)(C)C)cc2)c2ccc(C(C)(C)C)cc2)cc1 | > 100 µM | > 100 µM | > 100 µM |  | > 100 µM | > 100 µM |  | > 100 µM | > 100 µM | > 100 µM |  |  |  |  |  |  |  |  |  | 
C[C@H]1CC(=O)[C@@]2(O)C#C/C=C\C#C[C@@H]3Nc4c(cc(O)c5c4C(=O)c4ccccc4C5=O)[C@]24O[C@]314 |  | 0.178 µM and 0.0836 µM | 0.123 µM and 0.0412 µM | 0.204 µM and 0.286 µM | 0.00552 µM and 0.0052 µM | 0.293 µM and 0.384 µM | 0.336 µM | 0.0252 µM | 0.0592 µM and 0.101 µM | 0.249 µM and 0.154 µM |  | 0.0025 µM |  | 0.00794 µM | 0.0025 µM | 0.032 µM |  |  | 0.00359 µM | 0.00313 µM
O=[N+]([O-])C(=C(c1ccccc1)c1ccccc1)[N+](=O)[O-] | 36.6 µM | 26.3 µM |  | 25.8 µM | 8.74 µM | 31.3 µM |  | 25.5 µM | 52.8 µM | 6.43 µM |  |  |  |  |  |  |  |  |  | 
C=C1C(=O)C23C(CC(OC(C)=O)C1[C@@H]2OC(C)=O)C1(C)C(OC(C)=O)CCC(C)(C)C1C[C@@H]3OC(C)=O (stereo not given in full) | 3.19 µM | 2.97 µM | 3.33 µM | 3.14 µM | 2.51 µM | 1.66 µM | 1.35 µM | 2.92 µM |  | 4.68 µM |  |  |  |  |  |  |  |  |  | 
C/C(=N\NC(=S)Nc1ccc([N+](=O)[O-])cc1S(=O)(=O)O)c1ccccn1 | > 100 µM | > 100 µM | > 100 µM | > 100 µM | 84.8 µM |  | > 100 µM | > 100 µM | > 100 µM | > 100 µM |  |  |  |  |  |  |  |  |  | 
O=C(O)CNS(=O)(=O)c1ccc(NC(=O)c2cccc([N+](=O)[O-])c2)cc1 | > 100 µM |  | > 100 µM | > 100 µM | > 100 µM | > 100 µM | > 100 µM | > 100 µM | > 100 µM | > 100 µM |  |  |  |  |  |  |  |  |  | 
CC1=C[C@H]2C[C@@]3(C)O[C@@H]([C@]4(C)CC[C@H]([C@@H](C)C(=O)O)OO4)CC3C(C)(C)[C@H]2CC1 (stereo not given in full) | 2.59 µM | 3.78 µM |  | 3.17 µM | 0.306 µM | 0.832 µM | 0.273 µM | 3.05 µM | 3.55 µM |  |  |  |  |  |  |  |  |  |  | 
COCCn1cc(-c2csc(-c3c[nH]c4ccc(F)cc34)n2)c2cccnc21 | > 100 µM | > 100 µM | > 100 µM |  |  | > 100 µM | > 100 µM | > 100 µM | > 100 µM |  | 4.41 µM | 3.77 µM | 2.69 µM |  |  | 2.19 µM | 6.28 µM | 5.27 µM | 3.88 µM | 
COc1cc(C=NCC(=O)CSC(c2ccccc2)c2ccccc2)cc(OC)c1OC | > 100 µM | > 100 µM | 24.4 µM | 60.5 µM | 26.8 µM |  | > 100 µM | > 100 µM | > 100 µM | 39.9 µM | 22.6 µM | 14.1 µM | 11.8 µM | 13.9 µM | 8.01 µM |  | 8.59 µM | 26.4 µM | 26 µM | 5.18 µM
O=C(O)c1oc2ccc([N+](=O)[O-])c3c2c1CCC3 | > 100 µM | > 100 µM |  | > 100 µM | > 100 µM | > 100 µM | > 100 µM | > 100 µM | > 100 µM |  |  |  |  |  |  |  |  |  |  | 
C(=C1/CCCCC([n+]2ccccc2)=N1)/c1ccccc1 | > 100 µM | > 100 µM |  |  | > 100 µM | > 100 µM | > 100 µM | > 100 µM | > 100 µM | > 100 µM |  |  |  |  |  |  |  |  |  | 
O=C(O)CCN1C(=O)/C(=C/C(Cl)=C/c2ccccc2)SC1=S | 3.06 µM | 5.06 µM | 3.47 µM | 7.81 µM | 7.64 µM | 5.66 µM | 12.5 µM | 4.76 µM | 4.63 µM |  | 1.56 µM | 1.82 µM | 1.84 µM | 1.96 µM | 1.85 µM | 2.07 µM | 4.35 µM | 1.93 µM | 1.96 µM | 
